Test results: US10703748B2, “Diazanaphthalen-3-yl carboxamides and preparation and use thereof” (Samumed, LLC, priority 2017, dated 2020)

Assays:
DYRK1A kinase = DYRK1A kinase (Homo sapiens, UniProt Q13627); assay: DYRK1A kinase activity (Ser/Thr 18 peptide Z-lyte FRET assay); assay type: biochemical; details: recombinant DYRK1A, 30 μM ATP, one hour at room temperature;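 note: kinase activity read as coumarin/fluorescein emission ratio after development step, with unphosphorylated and phosphorylated peptide forms setting 0% and 100% controls, values from dose-response curves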
GSK3β kinase = GSK3β kinase (Homo sapiens, UniProt P49841); assay: GSK3β kinase activity (Ser/Thr 09 peptide Z-lyte FRET assay); assay type: biochemical; details: recombinant kinase, 46 μM ATP, one hour at room temperature; read-out: EC50
[1] = test system: SW480 colon carcinoma cells; assay: Cell viability assay (CellTiter-Glo); details: for inhibition at 10 µM: SW480, read-out: percent inhibition at 10 μM
[2] = test system: Wnt-responsive Sp5-Luc reporter in SW480 colon carcinoma cells; assay: Screening assay for Wnt activity (Sp5-Luc reporter gene assay); details: for inhibition at 10 µM: SW480, read-out: percent inhibition at 10 μM
IL-6 = IL-6 inhibition in LPS-stimulated human peripheral blood mononuclear cells (HTRF); details: for inhibition at 10 µM: read-out: percentage in parentheses after EC50 >10
Method: Each compound was dissolved in DMSO (Catalog # D8418-100 ml, Sigma-Aldrich, St. Louis, Mo.) as a 10 mM stock and used to prepare compound source plates. […] After 22 hour incubation, a mixture of anti-IL6 XL665 and anti-IL-6 Cryptate diluted in reconstitution buffer (Catalog #62IL6PEC, Cisbio Inc., Bedford, Mass.) was added to each well. […] All samples were processed in duplicate. […] EC50 was determined using software generated by Dotmatics Limited (Windhill Bishops Stortford Herts, UK) using the Levenberg-Marquardt 4 parameter fitting procedure with finite different gradients.

[3] = test system: α-smooth muscle actin (aSMA) positive LL29 cells; assay: Inhibition of the fibrotic process: αSMA staining in TGF-β1 treated LL29 fibroblasts from IPF patients; details: for inhibition at 10 µM: read-out: percentage in parentheses after EC50 >10

Chain of GSK3β kinase (P49841 whole entry): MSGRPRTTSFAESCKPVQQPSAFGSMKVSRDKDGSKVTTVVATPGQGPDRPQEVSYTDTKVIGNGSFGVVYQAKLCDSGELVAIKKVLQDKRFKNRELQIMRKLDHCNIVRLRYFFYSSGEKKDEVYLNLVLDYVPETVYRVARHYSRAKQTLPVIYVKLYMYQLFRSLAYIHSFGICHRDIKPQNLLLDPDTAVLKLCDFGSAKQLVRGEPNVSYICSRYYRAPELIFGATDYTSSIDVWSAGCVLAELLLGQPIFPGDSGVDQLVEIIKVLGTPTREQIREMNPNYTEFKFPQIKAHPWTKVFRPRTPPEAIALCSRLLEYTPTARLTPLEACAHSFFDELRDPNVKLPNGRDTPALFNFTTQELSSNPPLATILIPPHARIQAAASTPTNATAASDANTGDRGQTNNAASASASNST

Row | SMILES | EC50 (DYRK1A kinase) | EC50 (GSK3β kinase) | EC50 ([1]; Homo sapiens, SW480, 96 h) | inhibition at 10 µM ([1]; Homo sapiens) | EC50 ([2]; Homo sapiens, SW480) | inhibition at 10 µM ([2]; Homo sapiens) | EC50 (IL-6; Homo sapiens, PBMC, 22 h) | inhibition at 10 µM (IL-6; Homo sapiens, PBMC) | EC50 ([3]; Homo sapiens, Fibroblast, 96 h) | inhibition at 10 µM ([3]; Homo sapiens, Fibroblast) | EC50 ([1]; SW480 cells, four days, CellTiter-Glo) | percent inhibition at 10 μM ([1]; at 10 μM, given for EC50 of >10 μM, SW480 cell viability) | EC50 ([2]; SW480 Sp5-Luc reporter cells, 36 to 48 hours) | EC50 (IL-6; huPBMCs, LPS 50 ng/mL, 22 hours, curves starting from 10 μM) | percentage in parentheses after EC50 >10 (IL-6; huPBMCs, LPS, given beside >10 μM, meaning not given) | EC50 ([3]; LL29 fibroblasts from IPF patients, TGF-β1 20 ng/mL, 4 days, curves from 10 μM to 0.94 nM) | percentage in parentheses after EC50 >10 ([3]; LL29 fibroblasts, TGF-β1, given beside >10 μM, meaning not given)
1 | N#CC(c1cncc(-c2ccc3cnc(NC(=O)C4CC4)nc3c2)c1)N1CCC(O)CC1 (stereo not drawn) [Compound 4594, N-(7-(5-(Cyano(4-hydroxypiperidin-1-yl)methyl)pyridin-3-yl)quinazolin-2-yl)cyclopropanecarboxamide] | 0.035 µM | 0.528 µM | > 10 µM | 15% | > 10 µM | 35.6% | > 10 µM | 2.4% | 3.25 µM | – | – | – | – | – | – | – | –
2 | Cc1nnc(-c2ccc3cnc(NC(=O)c4ccnc(N5CCN(C)CC5)c4)nc3c2)s1 [Compound 1656, N-(7-(5-Methyl-1,3,4-thiadiazol-2-yl)quinazolin-2-yl)-2-(4-methylpiperazin-1-yl)isonicotinamide] | 0.065 µM | 0.34 µM | 2.21 µM | – | 1.2 µM | – | > 10 µM | 6% | 1.76 µM | – | – | – | – | – | – | – | –
3 | Cn1cc(-c2ccc3cnc(NC(=O)C4CCN(CC5(C(F)(F)F)CC5)CC4)cc3n2)nn1 [Compound 347, N-(2-(1-Methyl-1H-1,2,3-triazol-4-yl)-1,6-naphthyridin-7-yl)-1-((1-(trifluoromethyl)cyclopropyl)methyl)piperidine-4-carboxamide] | 9.99 µM | > 10 µM | > 10 µM | 10.7% | > 10 µM | 28.7% | > 10 µM | 4% | > 10 µM | 20.7% | – | – | – | – | – | – | –
4 | CN1CC(COc2cncc(-c3ccc4cnc(NC(=O)c5ccc(F)cc5)nc4c3)n2)C1 [Compound 4595, 4-Fluoro-N-(7-(6-((1-methylazetidin-3-yl)methoxy)pyrazin-2-yl)quinazolin-2-yl)benzamide] | 0.038 µM | > 10 µM | 4.57 µM | – | > 10 µM | 20.1% | > 10 µM | 5.3% | > 10 µM | 2.8% | – | – | – | – | – | – | –
5 | CC(C(=O)Nc1cc2cc(-c3cncn3C)cnc2cn1)N1CCCC1 (stereo not drawn) [Compound 3134, N-(3-(1-Methyl-1H-imidazol-5-yl)-1,7-naphthyridin-6-yl)-2-(pyrrolidin-1-yl) propanamide] | 2 µM | 2.59 µM | > 10 µM | 23.8% | > 10 µM | 10.2% | > 10 µM | 3.9% | > 10 µM | 19.7% | – | – | – | – | – | – | –
6 | CN(C)C1CCN(c2cc(C(=O)Nc3cc4cc(-c5cn(C)nn5)ncc4cn3)ccn2)CC1 [Compound 4003, 2-(4-(Dimethylamino)piperidin-1-yl)-N-(6-(1-methyl-1H-1,2,3-triazol-4-yl)-2,7-naphthyridin-3-yl)isonicotinamide] | 0.056 µM | 1.72 µM | > 10 µM | 50.4% | > 10 µM | 34% | > 10 µM | 3.7% | > 10 µM | 24.6% | – | – | – | – | – | – | –
7 | CC(C)Nc1cncc(-c2ccc3cnc(NC(=O)c4cn(C5CCN(CCF)CC5)nn4)cc3n2)n1 [Compound 863, 1-(1-(2-fluoroethyl)piperidin-4-yl)-N-(2-(6-(isopropylamino)pyrazin-2-yl)-1,6-naphthyridin-7-yl)-1H-1,2,3-triazole-4-carboxamide] | 0.388 µM | > 10 µM | > 10 µM | 27.5% | > 10 µM | 29.7% | > 10 µM | 7% | > 10 µM | 41% | – | – | – | – | – | – | –
8 | Cn1cc(-c2ccc3cnc(NC(=O)C(C)(C)F)cc3n2)nn1 [Compound 333] | – | – | – | – | – | – | – | – | – | – | > 10 µM | 35.6% | 0.504 µM | > 10 µM | 5.4% | > 10 µM | 25.2%
